Assay results as given in BindingDB's records for doi:10.1021/jm00355a015 (1983).

Each compound was assayed against arachidonate 5-lipoxygenase (Cavia porcellus) (assay: Inhibitory activity against 5-lipoxygenase).

SMILES	IC50
CCCCC/C=C\C\C=C/C=C/C=C/C1CC1CCCC(=O)O (stereo not drawn) [4-(2-Tetradeca-1,3,5,8-tetraenyl-cyclopropyl)-butyric acid]	3 µM
CCCCCCCCCCCCCCC1CC1CCCC(=O)O (stereo not drawn) [4-(2-Tetradecyl-cyclopropyl)-butyric acid]	100 µM
CCCCC/C=C\C\C=C/C=C/C=C/C1SC1CCCC(=O)OC (stereo not drawn) [4-(3-Tetradeca-1,3,5,8-tetraenyl-thiiranyl)-butyric acid methyl ester]	65 µM
CCCCC/C=C\C\C=C/C=C/C=C/[C@@H]1O[C@H]1CCCC(=O)O [4-{(2S,3S)-3-[(1E,3E,5Z,8Z)-tetradeca-1,3,5,8-tetraen-1-yl]oxiran-2-yl}butanoic acid]	2 µM
CCCCC/C=C\C\C=C/C=C/C=C/C1CC1CCCCC(=O)O (stereo not drawn) [5-(2-Tetradeca-1,3,5,8-tetraenyl-cyclopropyl)-pentanoic acid]	20 µM
CCCCC/C=C\C/C=C\C/C=C\C=C\C(CO)CCCC(=O)O (stereo not drawn) [5-Hydroxymethyl-icosa-6,8,11,14-tetraenoic acid]	100 µM
CCCCC/C=C\C/C=C\CC=CC=CC(=O)CCCC(=O)OC [5-Oxo-icosa-6,8,11,14-tetraenoic acid methyl ester]	20 µM
CCCCC/C=C\C/C=C\C/C=C\C=C\[C@@H](O)CCCC(=O)O [(5S,6E,8Z,11Z,14Z)-5-hydroxyicosa-6,8,11,14-tetraenoic acid]	2 µM
